Reference: patent publication US20230227445A1, “BENZAMIDE COMPOUND AND USE THEREOF” (HUMANWELL HEALTHCARE (GROUP) CO., LTD., priority 2020, published 2023)

Key:
rat taste = test: Taste test in rat (water vs 0.3 mM aqueous quinine solution intake); assay type: in vivo, SD rats; conditions: for Water/aqueous quinine solution (ratio of water intake to aqueous quinine solution intake): SD rats, 30 mg/kg i.p, 0.3 mM quinine, 15 min supply half an hour after administration
Protocol: SD rats were administered with the corresponding compound after 3 days of overnight water prohibition training. Each rat was supplied with 1 bottle of water and 1 bottle of 0.3 mM aqueous quinine solution half an hour after the administration. After 15 min of water supply, the bottles were removed. The intake amount of water and the intake amount of the 0.3 mM aqueous quinine solution were measured, respectively. The taste influence of the compound on SD rats was evaluated based on the difference between the intake amount of water and the intake amount of the aqueous quinine solution.

[1] = test system: histamine/citric acid-stimulated cough in guinea pig; test: Efficacy test for histamine/citric acid-stimulated cough in guinea pig; assay type: in vivo; conditions: guinea pigs, nasal drops, 0.17 mg/kg to 1.5 mg/kg, histamine/citric acid stimulation
Protocol: Guinea pigs were adaptively fed for 3 days to 7 days before being grouped. When the body weight of the guinea pigs reached 300 g to 400 g, they were numbered and randomly grouped.
Compounds or an excipient were administered to guinea pigs by nasal drops 0.25 hour to 24 hours before the start of the cough assessment. The administration dose of the test sample ranged from 0.17 mg/kg to 1.5 mg/kg. For the cough assessment, the guinea pigs were placed in a whole-body volume scan box for adaptation, and then, they were provided with histamine nebulization and then citric acid nebulization. […]
(§1) The experimental data was statistically analyzed by one-way ANOVA to analyze and compare data of the various groups. The statistical analysis result p<0.05 was regarded as a significant difference. The t-test was employed for difference comparison between any two.

hP2X3 receptor = target: T1, hP2X3 receptor (Homo sapiens, UniProt P56373); test: Antagonistic activity against hP2X3 receptor by FLIPR calcium flow assay; assay type: cell-based; conditions: for IC50: human cells stably transfected with hP2X3, agonist α,β-meATP 400 nM; for antagonistic activity against hP2X3 receptor compared with Reference compound 1 (in words): vs Reference compound 1
T1 construct: expressed in transfected cells
T1 sequence (P56373 1-397): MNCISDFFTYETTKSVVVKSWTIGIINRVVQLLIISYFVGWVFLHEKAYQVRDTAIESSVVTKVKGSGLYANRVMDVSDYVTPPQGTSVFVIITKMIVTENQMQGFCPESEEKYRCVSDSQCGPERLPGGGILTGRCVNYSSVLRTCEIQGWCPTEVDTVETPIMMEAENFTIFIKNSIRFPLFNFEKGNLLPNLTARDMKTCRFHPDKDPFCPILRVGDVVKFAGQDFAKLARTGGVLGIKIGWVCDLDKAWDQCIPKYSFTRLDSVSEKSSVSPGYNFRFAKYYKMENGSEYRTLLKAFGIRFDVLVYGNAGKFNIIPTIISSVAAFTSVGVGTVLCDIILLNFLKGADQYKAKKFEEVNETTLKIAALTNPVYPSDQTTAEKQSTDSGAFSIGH
Protocol: The antagonistic activity of hP2X3 antagonists against hP2X3 receptor was evaluated by means of FLIPR Calcium 4 Assay Kit (Molecular Devices, R8141) and FLIPR TETRA instrument (Molecular Devices, 0296) by detecting calcium flow signals. 24h before the experiment, human cells, which had been stably transfected with hP2X3 receptors, were plated on a 384-well plate at 2×10^5 cells/mL, with 50 μL of cell suspension per well, and the plate was cultured in an incubator (37° C., 5% CO2) for 16 h to 24 h. The test compound solution (20 to 50 mM DMSO stock solution) with a concentration of 180 times the required concentration was prepared using DMSO. The stock solution was added to the 384-well plate at 500 nL per well, supplemented with 30 μL of FLIPR Assay buffer (1×HBSS+2 mM CaCl2 20 mM HEPES containing 1.26 mM Ca^2+). The 384-well plate was shaken for 20 to 40 min to mix evenly. An agonist (α, β-meATP) with a concentration of 3 times the required concentration (required final concentration was 400 nM) was prepared with FLIPR Assay buffer, and was added to another 384-well plate at 45 μL per well. The culture plate, on which the cells were plated one day ago, was taken, the cell supernatant was sucked and discarded, each well was added with 30 μL of Dye (FLIPR® Calcium 4 Assay Kit, diluted with FLIPR buffer), and then the plate was incubated for 1h. 15 μL of compound was added to each well of cells (using FLIPR sample injector). After 15 minutes, 22.5 μL of the agonist was added to each well, and the fluorescence signal (exciting light wavelength ranging from 470 nm to 495 nm, and emission wavelength ranging from 515 nm to 575 nm) was detect. […] An inhibition effect curve of the compound was fitted on the software GraphpadPrism6, and the IC50 value was calculated.

[2] = Pharmacokinetic assay in mouse; assay type: in vivo, ICR mice; conditions: for pharmacokinetic properties in mouse compared with Reference compound 1 and Reference compound 2 (in words): mouse assay, vs Reference compounds 1 and 2; for AUC(0-t) / Cmax / Tmax / half-life: mouse, plasma, po, male ICR mice, intragastric administration, 10 mg/kg; for half-life: read-out: T½ (converted)
Protocol: For a mouse pharmacokinetic assay, male ICR mice (20 g to 25 g) were selected and fasted overnight. Three mice were intragastrically administered with 10 mg/kg of the corresponding compound. The blood of the mice was collected before the administration and at 15 min, 30 min, 1 h, 2 h, 4 h, 8 h, and 24 h after the administration. The blood samples were centrifuged at 4° C. for 6 minutes at 6,800 g, plasma was collected and stored at −80° C.
The supernatant was mixed with 3 times the amount of water, and an appropriate amount of the mixed solution was taken for LC-MS/MS analysis. The primary pharmacokinetic parameters were analyzed by WinNonlin 7.0 software non-atrioventricular model.

[3] = Pharmacokinetic assay in rat; assay type: in vivo, SD rats; conditions: rat, plasma, po, male SD rats, intragastric administration, 10 mg/kg
Protocol: For a rat pharmacokinetic assay, male SD rats (180 g to 240 g) were selected and fasted overnight. Three rats were intragastrically administered with 10 mg/kg of the corresponding compound. The blood of the rats was collected before the administration and at 15 min, 30 min, 1 h, 2 h, 4 h, 8 h, and 24 h after the administration. The blood samples were centrifuged at 4° C. for 6 minutes at 8,000 r/min, and plasma was collected and stored at −20° C. Plasma at each time point was taken, and added with 3 to 5 times the amount of an internal standard-containing acetonitrile solution to mix, and the mixture was vortex mixed for 1 minute, and centrifuged at 4° C. for 10 minutes at 13,000 r/min. The supernatant was taken and mixed with 3 times the amount of water, and an appropriate amount of the mixed solution was taken for LC-MS/MS analysis. The primary pharmacokinetic parameters were analyzed by WinNonlin 7.0 software non-atrioventricular model.

[4] = test system: ATP/citric acid-stimulated cough in guinea pig; test: Efficacy test for ATP/citric acid-stimulated cough in guinea pig; assay type: in vivo; conditions: guinea pigs, nasal drops, 0.17 mg/kg to 1.5 mg/kg, ATP/citric acid stimulation
Protocol: Guinea pigs were adaptively fed for 3 days to 7 days before being grouped. When the body weight of the guinea pigs reached 300 g to 400 g, they were numbered and randomly grouped. Compounds or an excipient were administered to guinea pigs by nasal drops 0.25 hour to 24 hours before the start of the cough assessment. The administration dose of the test sample ranged from 0.17 mg/kg to 1.5 mg/kg. For the cough assessment, the guinea pigs were placed in a whole-body volume scan box for adaptation, and then provided with ATP nebulization, and a few minutes later, they were provided with citric acid nebulization. The cough times within 15 minutes and the cough latency were recorded from the beginning of citric acid nebulization.
as §1

[5] = Pharmacokinetic assay in canine; assay type: in vivo, Beagle dogs
Protocol: For a canine pharmacokinetic assay, male Beagle dogs (8 kg to 10 kg) were selected and fasted overnight. Three Beagle dogs were intragastrically administered with 5 mg/kg of the corresponding compound. Another 3 Beagle dogs were intravenously administered with 1 mg/kg of the corresponding compound. The blood of the dogs was collected before the administration and at 15 min, 30 min, 1 h, 2 h, 4 h, 8 h, and 24 h after the administration. The blood samples were centrifuged at 4° C. for 6 minutes at 8,000 r/min, plasma was collected and stored at −20° C. […] The supernatant was taken and mixed with 3 times the amount of water, and an appropriate amount of the mixed solution was taken for LC-MS/MS analysis. The primary pharmacokinetic parameters were analyzed by WinNonlin 7.0 software non-atrioventricular model.

[6] = dog, plasma, po, male Beagle dogs, intragastric administration, 5 mg/kg
[7] = dog, plasma, male Beagle dogs, intravenous administration, 1 mg/kg

Row | Structure (SMILES) | Water/aqueous quinine solution (ratio of water intake to aqueous quinine solution intake) (rat taste) | IC50 (hP2X3 receptor) [nM] | antagonistic activity against hP2X3 receptor compared with Reference compound 1 (in words) (hP2X3 receptor) | AUC(0-t) [2] [ng·h/mL] | Cmax [2] [ng/mL] | Tmax [2] [h] | half-life [2] [h] | Average cough times within 15 min [1] | Cough inhibition rate vs. solvent [1] [%] | pharmacokinetic properties in mouse compared with Reference compound 1 and Reference compound 2 (in words) [2] | Average cough times within 15 min [4] | other results
1 | Cc1cnc(-c2cc(O[C@@H](C)[C@H](C)O)cc(C(=O)N[C@H](C)c3cnc(C(F)(F)F)nc3)c2F)s1 [Compound I-28, 2-fluoro-5-(((2S, 3S)-3-hydroxybutan-2-yl)oxy)-3-(5-methylthiazol-2-yl)-N—((R)-1-(2-(trifluoromethyl)pyrimidin-5-yl)ethyl)benzamide] | 15.4 | 63 | better antagonistic activity | 8760 | 2400 | 0.5 | 2.65 | 9.1 | 65.8 | significantly improved pharmacokinetic properties |  | 
2 | Cc1cnc(-c2cc(O[C@@H]3CCOC3)cc(C(=O)N[C@H](C)c3cnc(C(F)(F)F)nc3)c2)s1 [Reference compound 1, reference compound] |  |  |  |  |  |  |  |  |  |  | 8.1 | AUC(0-t) [3]: 3330 ng·h/mL; Cmax [3]: 417 ng/mL; Tmax [3]: 2 h; half-life ([3]; read-out: T½ (converted)): 4.01 h
3 | Cc1cnc(-c2cc(O[C@@H](C)[C@@H](C)O)cc(C(=O)N[C@H](C)c3cnc(C(F)(F)F)nc3)c2F)s1 [Compound I-27, 2-fluoro-5-(((2S, 3R)-3-hydroxybutan-2-yl)oxy)-3-(5-methylthiazol-2-yl)-N—((R)-1-(2-(trifluoromethyl)pyrimidin-5-yl)ethyl)benzamide] | 29.4 | 67 | better antagonistic activity |  |  |  |  | 8.9 |  | significantly improved pharmacokinetic properties | 6.3 | interference on rat taste compared with Reference compound 1 (in words) (rat taste; vs positive reference compound): significantly less interference on rat taste
4 | Cc1cnc(-c2cc(OC[C@H]3CN(C)CCO3)cc(C(=O)N[C@H](C)c3cnc(C(F)(F)F)nc3)c2F)s1 [Compound I-19, 2-fluoro-5-(((R)-4-methylmorpholin-2-yl)methoxy)-3-(5-methylthiazol-2-yl)-N—((R)-1-(2-(trifluoromethyl)pyrimidin-5-yl)ethyl)benzamide] |  | 310 |  |  |  |  |  |  |  |  |  | 

Further lines, with some results ahead:

Row | Water/aqueous quinine solution (ratio of water intake to aqueous quinine solution intake) (rat taste) | IC50 (hP2X3 receptor) [nM] | antagonistic activity against hP2X3 receptor compared with Reference compound 1 (in words) (hP2X3 receptor) | AUC(0-t) [2] [ng·h/mL] | Cmax [2] [ng/mL] | Tmax [2] [h] | half-life [2] [h] | Structure (SMILES) | Average cough times within 15 min [1] | Cough inhibition rate vs. solvent [1] [%] | pharmacokinetic properties in mouse compared with Reference compound 1 and Reference compound 2 (in words) [2] | Average cough times within 15 min [4] | other results
5 | 12.0 | 57 | better antagonistic activity | 14900 | 4100 | 1 | 2.23 | Cc1cnc(-c2cc(O[C@H](C)[C@H](C)O)cc(C(=O)N[C@H](C)c3cnc(C(F)(F)F)nc3)c2F)s1 [Compound I-29, 2-fluoro-5-(((2R, 3S)-3-hydroxybutan-2-yl)oxy)-3-(5-methylthiazol-2-yl)-N—((R)-1-(2-(trifluoromethyl)pyrimidin-5-yl)ethyl)benzamide] | 10.8 | 59.4 | significantly improved pharmacokinetic properties |  | half-life (in words) ([5]; canine): long half-life; clearance rate (in words) ([5]; canine, intravenous administration): low clearance rate; exposure (in words) ([5]; canine, oral and intravenous administrations): high exposure; pharmacokinetic characteristics compared with the reference compound (in words) ([5]; canine, vs reference compound): better pharmacokinetic characteristics; AUC(0-t) [5, 6]: 8730 ng·h/mL; Cmax [5, 6]: 1160 ng/mL; Tmax [5, 6]: 1 h; half-life [5, 6]: 7.26 h; AUC(0-t) [5, 7]: 2010 ng·h/mL; clearance [5, 7]: 7.5 mL/min/kg; half-life [5, 7]: 7.64 h; Vd ([5]; dog, plasma, male Beagle dogs, intravenous administration, 1 mg/kg, read-out: Vz): 5 L/kg
6 |  | 50 | better antagonistic activity |  |  |  |  | Cc1cnc(-c2cc(OC(C)C(C)O)cc(C(=O)N[C@H](C)c3cnc(C(F)(F)F)nc3)c2F)s1 (single isomer, unassigned) [Compound I-5] |  |  |  |  | 
